Data reported in patent US7192948B2, “Bicyclic heterocycles as HIV integrase inhibitors” (priority 2004, dated 2007).

Target: T1, HIV-integrase (Human immunodeficiency virus type 1 group M subtype B, UniProt P12497)
T1 construct: Recombinant integrase (0.26 ng) was incubated with the beads
Test: HIV-Integrase Inhibition Activity (SPA bead strand transfer assay)
Type: biochemical
Conditions: recombinant integrase, in vitro
Protocol: HIV-Integrase Inhibition Activity. To evaluate in-vitro activity against HIV-integrase, 5 pmole of biotin labeled substrate DNA was bound to 100 μg of Streptavidin coated PVT SPA beads (Amersham Pharmacia Biotech). Recombinant integrase (0.26 ng) was incubated with the beads for 90 min at 37° C. Unbound enzyme was removed by washing the complex followed by addition of inhibitors and 0.1 fmol of P33 labeled target DNA. The reaction was stopped by adding EDTA to a final concentration of […]. Samples were counted in TopCountNXT (Packard) and the CPM was used as a measure of integration. The reaction condition was as described in A. Engelman and R. Craigie, J. Virol. 69, 5908–5911 (1995). The sequences of substrate and target DNA were described in Nucleic Acid Research 22, 1121–1122 (1994).

SMILES	IC50 [nM]
O=C1Cn2c(nc(C(=O)NCc3ccc(F)cc3)c(O)c2=O)N1 [Example 1, 6-Hydroxy-2,5-dioxo-1,2,3,5-tetrahydro-imidazo[1,2-a]pyrimidine-7-carboxylic acid 4-fluoro-benzylamide]	≥ 50
CN1C(=O)Cn2c1nc(C(=O)NCc1ccc(F)cc1)c(O)c2=O [Example 9, N-(4-Fluorobenzyl)-6-hydroxy-1-methyl-2,5-dioxo-1,2,3,5-tetrahydroimidazo[1,2-a]pyrimidine-7-carboxamide]	≥ 50
CN1C(=O)Cn2c1nc(C(=O)NCc1ccc(Cl)c(Cl)c1)c(O)c2=O [Example 10, N-(3,4-Dichlorobenzyl)-6-hydroxy-1-methyl-2,5-dioxo-1,2,3,5-tetrahydroimidazo[1,2-a]pyrimidine-7-carboxamide]	4 to 15
Cc1cc(CNC(=O)c2nc3n(c(=O)c2O)CC(=O)N3C)ccc1F [Example 11, N-(4-Fluoro-3-methylbenzyl)-6-hydroxy-1-methyl-2,5-dioxo-1,2,3,5-tetrahydroimidazo[1,2-a]pyrimidine-7-carboxamide]	4 to 15
CN1C(=O)Cn2c1nc(C(=O)NCc1ccc(F)c(Cl)c1)c(O)c2=O [Example 12, N-(3-Chloro-4-fluorobenzyl)-6-hydroxy-1-methyl-2,5-dioxo-1,2,3,5-tetrahydroimidazo[1,2-a]pyrimidine-7-carboxamide]	16 to 49000
Cc1ccc(CNC(=O)c2nc3n(c(=O)c2O)CC(=O)N3C)cc1C [Example 13, N-(3,4-Dimethylbenzyl)-6-hydroxy-1-methyl-2,5-dioxo-1,2,3,5-tetrahydroimidazo[1,2-a]pyrimidine-7-carboxamide]	16 to 49000
O=C(NCc1ccc(F)cc1)c1nc2n(c(=O)c1O)CC(=O)N2Cc1ccccc1 [Example 14, N-(4-Fluorobenzyl)-1-benzyl-6-hydroxy-2,5-dioxo-1,2,3,5-tetrahydroimidazo[1,2-a]pyrimidine-7-carboxamide]	16 to 49000
Cc1cc(CNC(=O)c2nc3n(c(=O)c2O)CC(=O)N3Cc2ccccc2)ccc1F [Example 15, N-(4-Fluoro-3-methylbenzyl)-1-benzyl-6-hydroxy-2,5-dioxo-1,2,3,5-tetrahydroimidazo[1,2-a]pyrimidine-7-carboxamide]	16 to 49000
CNC(=O)c1cc(F)ccc1CNC(=O)c1nc2n(c(=O)c1O)CC(=O)N2Cc1ccccc1 [Example 16, N-(4-Fluoro-2-(methylcarbamoyl)benzyl)-1-benzyl-6-hydroxy-2,5-dioxo-1,2,3,5-tetrahydroimidazo[1,2-a]pyrimidine-7-carboxamide]	16 to 49000
CNC(=O)c1cc(F)ccc1CNC(=O)c1nc2n(c(=O)c1O)CC(=O)N2C [Example 17, N-{4-Fluoro-2-(methylcarbamoyl)benzyl}-6-hydroxy-1-methyl-2,5-dioxo-1,2,3,5-tetrahydroimidazo[1,2-a]pyrimidine-7-carboxamide]	≥ 50
CNC(=O)c1cc(F)ccc1CNC(=O)c1nc2n(c(=O)c1O)CCC(=O)N2C [Example 23, N-(4-Fluoro-2-(methylcarbamoyl)benzyl)-3-hydroxy-9-methyl-4,8-dioxo-6,7,8,9-tetrahydro-4H-pyrimido[1,2-a]pyrimidine-2-carboxamide]	4 to 15
O=C(NCc1ccc(F)cc1)c1nc2n(c(=O)c1O)CCS(=O)(=O)N2 [Example 24, 7-Hydroxy-2,2,6-trioxo-1,3,4,6-tetrahydro-2H-2λ^6-pyrimido[2,1-c][1,2,4]thiadiazine-8-carboxylic acid 4-fluoro-benzylamide]	≥ 50
CN1C(=O)Cn2c(nc(C(=O)NCc3ccc(F)cc3)c(O)c2=O)N1C [Example 25, N-(4-Fluorobenzyl)-1,2-dimethyl-7-hydroxy-3,6-dioxo-2,3,4,6-tetrahydro-1H-pyrimido[2,1-c][1,2,4]triazine-8-carboxamide]	16 to 49000
CN1C(=O)Cn2c(nc(C(=O)NCc3ccc(Cl)c(Cl)c3)c(O)c2=O)N1C [Example 26, N-(3,4-Dichlorobenzyl)-1,2-dimethyl-7-hydroxy-3,6-dioxo-2,3,4,6-tetrahydro-1H-pyrimido[2,1-c][1,2,4]triazine-8-carboxamide]	16 to 49000
Cc1cc(CNC(=O)c2nc3n(c(=O)c2O)CC(=O)N(C)N3C)ccc1F [Example 27, N-(4-Fluoro-3-methylbenzyl)-1,2-dimethyl-7-hydroxy-3,6-dioxo-2,3,4,6-tetrahydro-1H-pyrimido[2,1-c][1,2,4]triazine-8-carboxamide]	16 to 49000
CN1C(=O)Cn2c(nc(C(=O)NCc3ccc(F)c(Cl)c3)c(O)c2=O)N1C [Example 28, N-(3-Chloro-4-fluorobenzyl)-1,2-dimethyl-7-hydroxy-3,6-dioxo-2,3,4,6-tetrahydro-1H-pyrimido[2,1-c][1,2,4]triazine-8-carboxamide]	16 to 49000
CN1Nc2nc(C(=O)NCc3ccc(F)cc3)c(O)c(=O)n2CC1=O [Example 29, N-(4-Fluorobenzyl)-7-hydroxy-2-methyl-3,6-dioxo-2,3,4,6-tetrahydro-1H-pyrimido[2,1-c][1,2,4]triazine-8-carboxamide]	≥ 50

SMILES	IC50 [nM]
Cc1cc(CNC(=O)c2nc3n(c(=O)c2O)CC(=O)N(C)N3)ccc1F [Example 30, N-(4-Fluoro-3-methylbenzyl)-7-hydroxy-2-methyl-3,6-dioxo-2,3,4,6-tetrahydro-1H-pyrimido[2,1-c][1,2,4]triazine-8-carboxamide]	≥ 50
CN1Nc2nc(C(=O)NCc3ccc(Cl)c(Cl)c3)c(O)c(=O)n2CC1=O [Example 31, N-(3,4-Dichlorobenzyl)-7-hydroxy-2-methyl-3,6-dioxo-2,3,4,6-tetrahydro-1H-pyrimido[2,1-c][1,2,4]triazine-8-carboxamide]	4 to 15
Cc1cc(CNC(=O)c2nc3n(c(=O)c2O)CC(=O)N2CCCCN32)ccc1F [Example 32, 2-Hydroxy-1,9-dioxo-5,6,7,8,9,10-hexahydro-1H-4,4b,8a,10a-tetraaza-phenanthrene-3-carboxylic acid 4-fluoro-3-methyl-benzylamide]	4 to 15
O=C(NCc1ccc(F)cc1)c1nc2n(c(=O)c1O)CC(=O)N1CCCCN21 [Example 33, 2-Hydroxy-1,9-dioxo-5,6,7,8,9,10-hexahydro-1H-4,4b,8a,10a-tetraaza-phenanthrene-3-carboxylic acid 4-fluoro-benzylamide]	16 to 49000
O=C(NCc1ccc(F)cc1)c1nc2n(c(=O)c1O)CC(=O)N1CCCN21 [Example 34, 7-Hydroxy-4,6-dioxo-2,3,4,5-tetrahydro-1H,6H-3a,5a,9,9b-tetraaza-benz[e]indene-8-carboxylic acid 4-fluoro-benzylamide]	16 to 49000
Cc1cc(CNC(=O)c2nc3n(c(=O)c2O)CC(=O)N2CCCN32)ccc1F [Example 35, 7-Hydroxy-4,6-dioxo-2,3,4,5-tetrahydro-1H,6H-3a,5a,9,9b-tetraaza-benz[e]indene-8-carboxylic acid 4-fluoro-3-methyl-benzylamide]	4 to 15
O=C(NCc1ccc(F)cc1)c1nc2n(c(=O)c1O)CCS2 [Example 36, N-(4-Fluorobenzyl)-6-hydroxy-5-oxo-3,5-dihydro-2H-thiazolo[3,2-a]pyrimidine-7-carboxamide]	4 to 15
Cc1cc(CNC(=O)c2nc3n(c(=O)c2O)CCS3)ccc1F [Example 37, N-(4-Fluoro-3-methylbenzyl)-6-hydroxy-5-oxo-3,5-dihydro-2H-thiazolo[3,2-a]pyrimidine-7-carboxamide]	4 to 15
O=C(NCc1ccc(Cl)c(Cl)c1)c1nc2n(c(=O)c1O)CCS2 [Example 38, N-(3,4-Dichlorobenzyl)-6-hydroxy-5-oxo-3,5-dihydro-2H-thiazolo[3,2-a]pyrimidine-7-carboxamide]	4 to 15
Cc1ccc(CNC(=O)c2nc3n(c(=O)c2O)CCS3)cc1C [Example 39, N-(3,4-Dimethylbenzyl)-6-hydroxy-5-oxo-3,5-dihydro-2H-thiazolo[3,2-a]pyrimidine-7-carboxamide]	16 to 49000
CNC(=O)c1cc(F)ccc1CNC(=O)c1nc2n(c(=O)c1O)CCS2 [Example 40, N-(4-Fluoro-2-(methylcarbamoyl)benzyl)-6-hydroxy-5-oxo-3,5-dihydro-2H-thiazolo[3,2-a]pyrimidine-7-carboxamide]	16 to 49000
CC1(C)Cn2c(nc(C(=O)NCc3ccc(F)cc3)c(O)c2=O)S1 [Example 41, N-(4-Fluorobenzyl)-6-hydroxy-2,2-dimethyl-5-oxo-3,5-dihydro-2H-thiazolo[3,2-a]pyrimidine-7-carboxamide]	≥ 50
CNC(=O)c1cc(F)ccc1CNC(=O)c1nc2n(c(=O)c1O)CC(C)(C)S2 [Example 42, N-(4-Fluoro-2-(methylcarbamoyl)benzyl)-6-hydroxy-2,2-dimethyl-5-oxo-3,5-dihydro-2H-thiazolo[3,2-a]pyrimidine-7-carboxamide]	≥ 50
O=C1Cn2c(nc(C(=O)NCc3ccc(F)cc3)c(O)c2=O)CN1 [Example 43, N-(4-Fluorobenzyl)-3-hydroxy-4,7-dioxo-6,7,8,9-tetrahydro-4H-pyrazino[1,2-a]pyrimidine-2-carboxamide]	≥ 50
CN1Cc2nc(C(=O)NCc3ccc(F)cc3)c(O)c(=O)n2CC1=O [Example 44, N-(4-Fluorobenzyl)-3-hydroxy-8-methyl-4,7-dioxo-6,7,8,9-tetrahydro-4H-pyrazino[1,2-a]pyrimidine-2-carboxamide]	≥ 50
CC1(C)NC(=O)Cn2c1nc(C(=O)NCc1ccc(F)cc1)c(O)c2=O [Example 45, N-(4-fluorobenzyl)-3-hydroxy-9,9-dimethyl-4,7-dioxo-6,7,8,9-tetrahydro-4H-pyrazino[1,2-a]pyrimidine-2-carboxamide]	16 to 49000
